Results as given in ChEMBL document CHEMBL3286369, “β-Secretase (BACE1)-inhibiting C-methylrotenoids from Abronia nana suspension cultures” (Bioorg Med Chem Lett, 2014).
Calls of active or inactive are those of the source. The rule behind the calls is not given here.

What was measured:
[1] = target: T1, Beta-secretase 1 (Homo sapiens, UniProt P56817); assay: Inhibition of BACE1 (unknown origin)
[2] = target: T1, Beta-secretase 1; assay: Inhibition of BACE1 (unknown origin) expressed in CHO cells coexpressing human APP gene assessed as inhibition of beta-amyloid synthesis; type: cell-based
[3] = organism: Homo sapiens; assay: Inhibition of elastase (unknown origin) up to 1 mM
[4] = organism: Homo sapiens; assay: Inhibition of chymotrypsin (unknown origin) up to 1 mM
[5] = target: Trypsin (Homo sapiens) (UniProt P07477+P07478+P35030); assay: Inhibition of trypsin (unknown origin) up to 1 mM; type: protein assay
[6] = target: Beta-secretase 1 (Mus musculus) (UniProt P56818); assay: Inhibition of BACE1 in mouse N2A cells transfected with human APP Swedish mutant assessed as amyloid beta (1-42) production at 50 uM; type: cell-based; design: scale not given: the % may be the effect or the level left
Chain of Beta-secretase 1 (Mus musculus) (P56818 whole entry): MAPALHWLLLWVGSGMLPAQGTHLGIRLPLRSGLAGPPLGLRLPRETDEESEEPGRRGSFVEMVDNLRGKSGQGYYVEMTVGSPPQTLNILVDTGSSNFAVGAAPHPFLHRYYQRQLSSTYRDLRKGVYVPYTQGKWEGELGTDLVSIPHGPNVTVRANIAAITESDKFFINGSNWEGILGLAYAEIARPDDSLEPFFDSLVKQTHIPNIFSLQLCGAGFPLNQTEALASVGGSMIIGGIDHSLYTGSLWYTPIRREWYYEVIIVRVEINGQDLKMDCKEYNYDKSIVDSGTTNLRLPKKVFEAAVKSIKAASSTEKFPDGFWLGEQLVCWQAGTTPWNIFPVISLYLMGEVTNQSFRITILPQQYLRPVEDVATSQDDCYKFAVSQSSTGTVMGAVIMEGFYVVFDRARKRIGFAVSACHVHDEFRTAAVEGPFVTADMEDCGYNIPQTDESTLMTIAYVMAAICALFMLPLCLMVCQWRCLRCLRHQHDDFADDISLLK

[7] = target: T1, Beta-secretase 1; assay: Non-competitive inhibition of BACE1 (unknown origin) by Dixon plot analysis
[8] = system: N2a; assay: Cytotoxicity against mouse N2A cells transfected with human APP Swedish mutant assessed as cell viability at 1 to 50 uM; type: cell-based

T1 sequence (P56817 whole entry): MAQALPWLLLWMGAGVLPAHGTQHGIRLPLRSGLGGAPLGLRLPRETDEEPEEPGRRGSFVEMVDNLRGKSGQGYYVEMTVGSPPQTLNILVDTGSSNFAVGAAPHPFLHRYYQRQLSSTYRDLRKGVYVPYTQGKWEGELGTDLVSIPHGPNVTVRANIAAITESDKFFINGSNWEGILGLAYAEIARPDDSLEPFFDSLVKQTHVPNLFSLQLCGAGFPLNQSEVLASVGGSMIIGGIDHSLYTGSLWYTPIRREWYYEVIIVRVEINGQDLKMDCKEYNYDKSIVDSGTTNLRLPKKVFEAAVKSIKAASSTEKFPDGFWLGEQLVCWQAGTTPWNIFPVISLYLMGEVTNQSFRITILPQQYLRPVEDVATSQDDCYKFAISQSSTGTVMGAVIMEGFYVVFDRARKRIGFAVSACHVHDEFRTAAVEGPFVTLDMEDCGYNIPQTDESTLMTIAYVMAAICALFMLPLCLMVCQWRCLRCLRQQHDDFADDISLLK

O=C1O[C@@H]2[C@@H](OC(=O)c3cc(O)c(O)c(O)c3-c3c1cc(O)c(O)c3O)[C@H](O)O[C@@H]1COC(=O)c3cc(O)c(O)c(O)c3-c3c(O)c(O)c4oc(=O)c5c(c(O)c(O)c6oc(=O)c3c4c65)-c3c(cc(O)c(O)c3O)C(=O)O[C@@H]21 [PUNICALAGIN]
IC50 [1]: 0.41 µM

C=C[C@H](c1ccccc1O)c1cc(O)c(OC)cc1OC [LATIFOLIN]
IC50 [2]: 180 µM

COc1cc2oc3c(c(=O)c2c(O)c1C)-c1ccc(O)cc1OC3O (centres undefined)
IC50 [1]: 4.24 µM | inhibition [1]: Dose-dependent effect | inhibition [3]: inactive | inhibition [4]: inactive | inhibition [5]: inactive | Activity [6]: 56% | Ki [7]: 4.28 µM | Activity [8]: Non-toxic

O=c1oc2c(O)c(O)cc3c(=O)oc4c(O)c(O)cc1c4c23 [ELLAGIC ACID]
IC50 [1]: 3.9 µM

COC1Oc2cc(O)ccc2-c2c1oc1cc(O)c(C)c(O)c1c2=O (centres undefined) [BOERAVINONE D]
IC50 [1]: 4.77 µM | inhibition [1]: Dose-dependent effect | inhibition [3]: inactive | inhibition [4]: inactive | inhibition [5]: inactive | Ki [7]: 5.01 µM

COc1cc2c(c(O)c1C)C(=O)[C@@]1(O)c3cccc(OC)c3OC[C@@H]1O2
IC50 [1]: 62.2 µM | inhibition [1]: Dose-dependent effect

COc1cc2oc3c(c(=O)c2c(O)c1C)-c1ccccc1OC3OC (centres undefined)
IC50 [1]: > 3000 µM

O=C(O[C@@H]1O[C@@H]2COC(=O)c3cc(O)c(O)c(O)c3-c3c(cc(O)c(O)c3O)C(=O)O[C@H]2[C@H](OC(=O)c2cc(O)c(O)c(O)c2)[C@H]1OC(=O)c1cc(O)c(O)c(O)c1)c1cc(O)c(O)c(O)c1 [EUGENIIN]
IC50 [1]: 3.1 µM | Ki [1]: 6.84 µM

O=C(OC[C@H]1O[C@@H](OC(=O)c2cc(O)c(O)c(O)c2)[C@H](OC(=O)c2cc(O)c(O)c(O)c2)[C@@H](OC(=O)c2cc(O)c(O)c(O)c2)[C@@H]1OC(=O)c1cc(O)c(O)c(O)c1)c1cc(O)c(O)c(O)c1 [PENTAGALLOYL GLUCOSE]
IC50 [1]: 3.76 µM | Ki [1]: 5.13 µM
